Test results published in US11629138B2, “Microbiocidal picolinamide derivatives” (Syngenta Participations AG, priority 2017, dated 2023).

Legend:
[1] = system: Monographella nivalis (Microdochium nivale); assay: Monographella nivalis (Microdochium nivale) / liquid culture (foot rot cereals); type: cell-based; settings: 200 ppm in the formulation, PDB broth, 24° C., photometric, 4-5 days after application, vs untreated control, read-out: disease control (inhibition of growth)
Experimental: (§1) Monographella nivalis (Microdochium nivale)/Liquid Culture (Foot Rot Cereals) Conidia of the fungus from cryogenic storage are directly mixed into nutrient broth (PDB potato dextrose broth). After placing a (DMSO) solution of test compound into a microtiter plate (96-well format), the nutrient broth containing the fungal spores is added. The test plates are incubated at 24° C. and the inhibition of growth is determined photometrically 4-5 days after application.

[2] = system: Mycosphaerella arachidis (Cercospora arachidicola); assay: Mycosphaerella arachidis (Cercospora arachidicola) / liquid culture (early leaf spot); type: cell-based; settings: 200 ppm in the formulation, PDB broth, 24° C., photometric, 4-5 days after application, vs untreated control, read-out: disease control (inhibition of growth)
Experimental: as §1, with “Mycosphaerella arachidis (Cercospora arachidicola)/Liquid” for “Monographella nivalis (Microdochium nivale)/Liquid”, “(Early Leaf Soot)” for “(Foot Rot Cereals)”

[3] = system: Mycosphaerella graminicola (Septoria tritici); assay: Mycosphaerella graminicola (Septoria tritici) / liquid culture (Septoria blotch); type: cell-based; settings: Zymoseptoria tritici; 200 ppm in the formulation; PDB broth, 24° C., photometric, 4 to 5 days after application; vs untreated control; read-out: disease control (inhibition of growth)
Experimental: as §1, with “Mycosphaerella graminicola (Septoria tritici)/Liquid” for “Monographella nivalis (Microdochium nivale)/Liquid”, “(Septoria Blotch)” for “(Foot Rot Cereals)”, “4 to 5” for “4-5”

[4] = system: Puccinia recondita f. so. tritici; assay: Puccinia recondita f. sp. tritici / wheat / leaf disc preventative (brown rust); type: in vivo; settings: foliar, 200 ppm in the formulation, wheat leaf segments cv. Kanzler, 7-9 days after application, vs untreated control, read-out: disease control
Experimental: Puccinia recondita f. so. tritici/Wheat/Leaf Disc Preventative (Brown Rust)
Wheat leaf segments cv. Kanzler are placed on agar in multiwell plates (24-well format) and sprayed with the formulated test compound diluted in water. The leaf disks are inoculated with a spore suspension of the fungus 1 day after application. The inoculated leaf segments are incubated at 19° C. and 75% rh under a light regime of 12 h light/12 h darkness in a climate cabinet and the activity of a compound is assessed as percent disease control compared to untreated when an appropriate level of disease damage appears in untreated check leaf segments (7-9 days after application).

[5] = system: Phaeosphaeria nodorum (Setoria nodorum); assay: Phaeosphaeria nodorum (Septoria nodorum) / wheat / leaf disc preventative (glume blotch); type: in vivo; settings: Parastagonospora nodorum, foliar, 200 ppm in the formulation, wheat leaf segments cv. Kanzler, 5-7 days after application, vs untreated control, read-out: disease control
Experimental: Phaeosphaeria nodorum (Setoria nodorum)/Wheat/Leaf Disc Preventative (Glume Blotch) Wheat leaf segments cv. Kanzler are placed on agar in a multiwell plate (24-well format) and sprayed with the formulated test compound diluted in water. The leaf disks are inoculated with a spore suspension of the fungus 2 days after application. The inoculated test leaf disks are incubated at 20° C. and 75% rh under a light regime of 12 h light/12 h darkness in a climate cabinet and the activity of a compound is assessed as percent disease control compared to untreated when an appropriate level of disease damage appears in untreated check leaf disks (5-7 days after application).

[6] = system: Glomerella lagenarium (Colletotrichum lagenarium); assay: Glomerella lagenarium (Colletotrichum lagenarium) / liquid culture (anthracnose); type: cell-based; settings: Colletotrichum orbiculare; 200 ppm in the formulation; PDB broth, 24° C., photometric, 3 to 4 days after application; vs untreated control; read-out: disease control (inhibition of growth)
Experimental: as §1, with “Glomerella lagenarium (Colletotrichum lagenarium)/Liquid” for “Monographella nivalis (Microdochium nivale)/Liquid”, “(Anthracnose)” for “(Foot Rot Cereals)”, “measured” for “determined”, “3 to 4” for “4-5”

[7] = system: Botryotinia fuckeliana (Botrytis cinerea); assay: Botryotinia fuckeliana (Botrytis cinerea) liquid culture (gray mould); type: cell-based; settings: 200 ppm in the formulation, Vogels broth, 24° C., photometric, 3-4 days after application, vs untreated control, read-out: disease control (inhibition of growth)
Experimental: as §1, with “Botryotinia fuckeliana (Botrytis cinerea) Liquid” for “Monographella nivalis (Microdochium nivale)/Liquid”, “(Gray Mould)” for “(Foot Rot Cereals)”, “(Vogels” for “(PDB potato dextrose”, “3-4” for “4-5”

COc1ccnc(C(=O)N[C@@H](C)C(=O)OC(C)C(C)n2ccc3c(Cl)ccc(Cl)c32)c1OC(C)=O (stereo partly drawn) [I.bb.041, [2-(4,7-dichloroindol-1-yl)-1-methyl-propyl] (2S)-2-[(3-acetoxy-4-methoxy-pyridine-2-carbonyl)amino] propanoate]
≥ 80%: inhibition at 200 ppm [1] | inhibition at 200 ppm [2] | inhibition at 200 ppm [3] | pest or weed control at 200 ppm [4] | pest or weed control at 200 ppm [5] | inhibition at 200 ppm [6]

COc1ccnc(C(=O)N[C@@H](C)C(=O)OC(C)C(C)n2ncc3ccccc32)c1O (stereo partly drawn) [I.ae.001, (2-indazol-1-yl-1-methyl-propyl) (2S)-2-[(3-hydroxy-4-methoxy-pyridine-2-carbonyl)amino]propanoate]
≥ 80%: inhibition at 200 ppm [2] | inhibition at 200 ppm [3] | pest or weed control at 200 ppm [4]

COc1ccnc(C(=O)N[C@@H](C)C(=O)OC(C)C(C)n2ccc3ccc(F)cc32)c1O (stereo partly drawn) [I.v.001, [2-(6-fluoroindol-1-yl)-1-methyl-propyl] (2S)-2-[(3-hydroxy-4-methoxy-pyridine-2-carbonyl)amino]propanoate]
≥ 80%: inhibition at 200 ppm [1] | inhibition at 200 ppm [2] | inhibition at 200 ppm [3] | pest or weed control at 200 ppm [4] | inhibition at 200 ppm [6] | inhibition at 200 ppm [7]

COc1ccnc(C(=O)N[C@@H](C)C(=O)OC(C)C(C)n2ccc3ccc(C(F)(F)F)cc32)c1O (stereo partly drawn) [I.z.001, [1-methyl-2-[6-(trifluoromethyl)indol-1-yl]propyl] (2S)-2-[(3-hydroxy-4-methoxy-pyridine-2-carbonyl)amino]propanoate]
≥ 80%: inhibition at 200 ppm [1] | inhibition at 200 ppm [2] | inhibition at 200 ppm [3] | pest or weed control at 200 ppm [4] | pest or weed control at 200 ppm [5] | inhibition at 200 ppm [6] | inhibition at 200 ppm [7]

COc1ccnc(C(=O)N[C@@H](C)C(=O)OC(C)C(C)n2ccc3cc(F)c(Cl)cc32)c1O (stereo partly drawn) [I.av.001, [2-(6-chloro-5-fluoro-indol-1-yl)-1-methyl-propyl] (2S)-2-[(3-hydroxy-4-methoxy-pyridine-2-carbonyl)amino]propanoate]
≥ 80%: inhibition at 200 ppm [2] | inhibition at 200 ppm [3] | pest or weed control at 200 ppm [4] | inhibition at 200 ppm [6]

COc1ccnc(C(=O)N[C@@H](C)C(=O)OC(C)C(C)n2ccc3ccc(Cl)cc32)c1O (stereo partly drawn) [I.x.001, [2-(6-chloroindol-1-yl)-1-methyl-propyl] (2S)-2-[(3-hydroxy-4-methoxy-pyridine-2-carbonyl)amino]propanoate]
≥ 80%: inhibition at 200 ppm [2] | inhibition at 200 ppm [3] | pest or weed control at 200 ppm [4] | inhibition at 200 ppm [6] | inhibition at 200 ppm [7]

COc1ccnc(C(=O)N[C@@H](C)C(=O)OC(C)C(C)n2ccc3cc(F)ccc32)c1O (stereo partly drawn) [I.w.001, [2-(5-fluoroindol-1-yl)-1-methyl-propyl] (2S)-2-[(3-hydroxy-4-methoxy-pyridine-2-carbonyl)amino]propanoate]
≥ 80%: inhibition at 200 ppm [1] | inhibition at 200 ppm [2] | inhibition at 200 ppm [3] | pest or weed control at 200 ppm [4] | inhibition at 200 ppm [6] | inhibition at 200 ppm [7]

COc1ccnc(C(=O)N[C@@H](C)C(=O)OC(C)C(C)c2sc3ccc(Cl)cc3c2C)c1O (stereo partly drawn) [I.at.001, [2-(5-chloro-3-methyl-benzothiophen-2-yl)-1-methyl-propyl] (2S)-2-[(3-hydroxy-4-methoxy-pyridine-2-carbonyl)amino]propanoate]
≥ 80%: inhibition at 200 ppm [1] | inhibition at 200 ppm [2] | inhibition at 200 ppm [3] | pest or weed control at 200 ppm [4] | pest or weed control at 200 ppm [5] | inhibition at 200 ppm [6]

COc1ccnc(C(=O)N[C@@H](C)C(=O)OC(C)C(C)n2ccc3cc(F)c(Br)cc32)c1O (stereo partly drawn) [I.aw.001, [2-(6-bromo-5-fluoro-indol-1-yl)-1-methyl-propyl] (2S)-2-[(3-hydroxy-4-methoxy-pyridine-2-carbonyl)amino]propanoate]
≥ 80%: inhibition at 200 ppm [2] | inhibition at 200 ppm [3] | pest or weed control at 200 ppm [4] | inhibition at 200 ppm [6]

COc1ccnc(C(=O)N[C@@H](C)C(=O)OC(C)C(C)c2ccc3ccccc3n2)c1O (stereo partly drawn) [I.s.001, [1-methyl-2-(2-quinolyl)propyl] (2S)-2-[(3-hydroxy-4-methoxy-pyridine-2-carbonyl)amino]propanoate]
≥ 80%: inhibition at 200 ppm [1] | inhibition at 200 ppm [2] | inhibition at 200 ppm [3] | pest or weed control at 200 ppm [4] | inhibition at 200 ppm [6] | inhibition at 200 ppm [7]

COc1ccnc(C(=O)N[C@@H](C)C(=O)OC(C)C(C)n2cc(C#N)c(-c3ccccc3Cl)c2)c1O (stereo partly drawn) [I.ah.001, [2-[3-(2-chlorophenyl)-4-cyano-pyrrol-1-yl]-1-methyl-propyl] (2S)-2-[(3-hydroxy-4-methoxy-pyridine-2-carbonyl)amino]propanoate]
≥ 80%: inhibition at 200 ppm [1] | inhibition at 200 ppm [2] | inhibition at 200 ppm [3] | inhibition at 200 ppm [6] | inhibition at 200 ppm [7]

COc1ccnc(C(=O)N[C@@H](C)C(=O)OC(C)C(C)n2ccc3cc(F)cc(F)c32)c1O (stereo partly drawn) [I.ay.001, [2-(5,7-difluoroindol-1-yl)-1-methyl-propyl] (2S)-2-[(3-hydroxy-4-methoxy-pyridine-2-carbonyl)amino] propanoate]
≥ 80%: inhibition at 200 ppm [1] | inhibition at 200 ppm [2] | inhibition at 200 ppm [3] | pest or weed control at 200 ppm [4] | pest or weed control at 200 ppm [5] | inhibition at 200 ppm [6]

COc1ccnc(C(=O)N[C@@H](C)C(=O)OC(C)C(C)n2cc(C#N)c(-c3cccc(Cl)c3Cl)c2)c1O (stereo partly drawn) [I.ag.001, [2-[3-cyano-4-(2,3-dichlorophenyl)pyrrol-1-yl]-1-methyl-propyl] (2S)-2-[(3-hydroxy-4-methoxy-pyridine-2-carbonyl)amino] propanoate]
≥ 80%: inhibition at 200 ppm [1] | inhibition at 200 ppm [3] | inhibition at 200 ppm [6] | inhibition at 200 ppm [7]

COc1ccnc(C(=O)N[C@@H](C)C(=O)OC(C)C(C)n2ccc3c(Br)ccc(F)c32)c1O (stereo partly drawn) [I.ab.001, [2-(4-bromo-7-fluoro-indol-1-yl)-1-methyl-propyl] (2S)-2-[(3-hydroxy-4-methoxy-pyridine-2-carbonyl)amino]propanoate]
≥ 80%: inhibition at 200 ppm [1] | inhibition at 200 ppm [2] | inhibition at 200 ppm [3] | pest or weed control at 200 ppm [4] | pest or weed control at 200 ppm [5] | inhibition at 200 ppm [6] | inhibition at 200 ppm [7]

COc1ccnc(C(=O)N[C@@H](C)C(=O)OC(C)C(C)n2ccc3cc(Cl)c(Cl)cc32)c1O (stereo partly drawn) [I.au.001, [2-(5,6-dichloroindol-1-yl)-1-methyl-propyl] (2S)-2-[(3-hydroxy-4-methoxy-pyridine-2-carbonyl)amino] propanoate]
≥ 80%: inhibition at 200 ppm [1] | inhibition at 200 ppm [2] | inhibition at 200 ppm [3] | pest or weed control at 200 ppm [4] | inhibition at 200 ppm [6] | inhibition at 200 ppm [7]
